# pIC50: −log10 of the molar value. “And” between values parts separate entries of the source, which are not always exact repeats. Identical values can stand only once.
# Legend:
# [1] = biological target: T1, IRE1α (Homo sapiens, UniProt O75460); test: Michaelis–Menten kinetic analysis with XBP1 RNA substrate; assay type: biochemical
# T1 construct: Human IRE1α kinase and RNase domain (residues 547–977) was subcloned into pLIB plasmid; His tag (with TEV cleavage site) (N, cleaved yes); made in house; host or cells: Sf9 insect cells, baculovirus (Bac-to-Bac)
# T1 sequence (O75460 547-977): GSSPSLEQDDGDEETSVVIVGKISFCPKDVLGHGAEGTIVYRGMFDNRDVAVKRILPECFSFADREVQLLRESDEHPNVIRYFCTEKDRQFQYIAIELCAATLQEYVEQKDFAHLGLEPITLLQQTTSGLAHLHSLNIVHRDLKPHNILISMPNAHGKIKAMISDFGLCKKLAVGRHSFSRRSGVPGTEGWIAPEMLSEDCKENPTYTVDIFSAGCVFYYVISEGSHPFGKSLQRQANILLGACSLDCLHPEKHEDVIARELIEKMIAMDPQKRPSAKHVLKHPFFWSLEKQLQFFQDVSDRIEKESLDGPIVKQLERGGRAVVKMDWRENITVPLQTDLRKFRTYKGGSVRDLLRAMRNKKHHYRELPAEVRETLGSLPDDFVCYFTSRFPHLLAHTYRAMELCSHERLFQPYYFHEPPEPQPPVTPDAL
# Experimental: I/s (fluorescence intensity/second), 7.98 FL. I/s, 2.33 FL. I/s and 0.9 FL. I/s, respectively.
# The dual-labeled RNA substrate with a FAM at 5’ and the BHQ-1 at 3’ containing the XBP1 sequence (5′FAM-[…]-3′BHQ1) was purchased from Integrated DNA Technologies (IDT). The FRET-based IRE1α RNase activity assay was carried out in reaction buffer containing 20 mM HEPES pH 7.5, 50 mM KOAc, 1 mM MgOAc2, 1 mM DTT, 0.05% v/v TritonX-100, at a total reaction volume of 20 μL in a 384-well black plate (4514, Corning). […] […] The indicated compound and IRE1α protein were incubated for 30 min at room temperature before the substrate was added to the reaction. The plate was then kinetically read over one hour at room temperature using a TECAN Spark plate reader. The measurement was carried out using the fluorescence top reading mode at the excitation wavelength of 485 nm and the emission wavelength of 535 nm with a 10 nm excitation and emission bandwidth. The linear part of the reaction curve was adopted and fitted with sample linear regression to obtain the slope, and the slope was adopted to reflect the reaction rate. The inhibition % was calculated by using the equation: inhibition% = 100 × (slope of DMSO control – slope of the sample)/(slope of DMSO control – slope of blank control), DMSO control: DMSO with protein and RNA substrate; Blank control: DMSO with RNA substrate. The IC50 values were calculated using the concentration-response model in GraphPad Prism 9.
# [2] = biological target: ACVR1B (ALK4) (Homo sapiens, UniProt P36896); test: Kinase profiling (SelectScreen), ZLYTE; assay type: biochemical
# Experimental: (§1) Kinase profiling was conducted by the SelectScreen Kinase Profiling Services (Thermo Fisher), using Z′-LYTE, Adapta, or LanthaScreen Eu Kinase Binding Assay for different kinases. The kinome phylogenetic tree was generated using the KinMap web portal.
# [3] = biological target: AMPK A1/B1/G1 (Homo sapiens, UniProt Q13131); test: Kinase profiling (SelectScreen), ZLYTE; assay type: biochemical
# Chain of AMPK A1/B1/G1 (Q13131 whole entry): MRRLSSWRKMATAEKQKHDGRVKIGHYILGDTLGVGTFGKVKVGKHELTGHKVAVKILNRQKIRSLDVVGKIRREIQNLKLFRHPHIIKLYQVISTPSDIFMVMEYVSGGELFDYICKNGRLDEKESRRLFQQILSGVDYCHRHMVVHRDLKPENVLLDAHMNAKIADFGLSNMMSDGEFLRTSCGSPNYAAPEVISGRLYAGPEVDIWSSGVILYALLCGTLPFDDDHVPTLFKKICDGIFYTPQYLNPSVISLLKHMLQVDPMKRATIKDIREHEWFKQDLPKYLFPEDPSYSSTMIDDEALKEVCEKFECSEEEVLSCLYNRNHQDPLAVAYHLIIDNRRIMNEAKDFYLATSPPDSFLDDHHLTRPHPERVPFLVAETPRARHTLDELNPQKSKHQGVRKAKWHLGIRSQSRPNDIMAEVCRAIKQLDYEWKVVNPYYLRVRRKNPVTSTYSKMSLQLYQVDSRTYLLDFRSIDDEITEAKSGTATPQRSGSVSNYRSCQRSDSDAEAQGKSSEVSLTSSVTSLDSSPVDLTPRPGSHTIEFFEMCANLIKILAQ
# Chain of AMPK A1/B1/G1 (Q9Y478 whole entry partner): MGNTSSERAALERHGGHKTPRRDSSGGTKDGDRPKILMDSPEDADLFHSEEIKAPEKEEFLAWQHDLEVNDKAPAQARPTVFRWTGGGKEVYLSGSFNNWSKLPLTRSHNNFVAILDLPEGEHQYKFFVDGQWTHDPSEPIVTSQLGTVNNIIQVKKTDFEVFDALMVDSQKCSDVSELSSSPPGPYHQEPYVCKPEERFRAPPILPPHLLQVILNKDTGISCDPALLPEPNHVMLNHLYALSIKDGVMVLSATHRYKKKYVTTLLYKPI
# Chain of AMPK A1/B1/G1 (P54619 whole entry partner): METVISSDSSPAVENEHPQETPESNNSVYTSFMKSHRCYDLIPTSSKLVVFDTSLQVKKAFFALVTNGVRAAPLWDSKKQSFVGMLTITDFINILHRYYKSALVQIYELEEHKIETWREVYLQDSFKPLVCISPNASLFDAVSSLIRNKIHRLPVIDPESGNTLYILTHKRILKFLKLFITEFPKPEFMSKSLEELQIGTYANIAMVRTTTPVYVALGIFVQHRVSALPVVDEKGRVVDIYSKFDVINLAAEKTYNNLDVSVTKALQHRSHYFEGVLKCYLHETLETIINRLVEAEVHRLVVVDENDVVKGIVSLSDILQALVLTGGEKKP
# Experimental: as §1
# [4] = biological target: BTK (Homo sapiens, UniProt Q06187); test: Kinase profiling (SelectScreen), ZLYTE; assay type: biochemical
# Experimental: as §1
# [5] = biological target: DNA-PK (Homo sapiens, UniProt P78527); test: Kinase profiling (SelectScreen), ZLYTE; assay type: biochemical
# Experimental: as §1
# [6] = biological target: FGFR1 (Homo sapiens, UniProt P11362); test: Kinase profiling (SelectScreen), ZLYTE; assay type: biochemical
# Chain of FGFR1 (P11362 22-822): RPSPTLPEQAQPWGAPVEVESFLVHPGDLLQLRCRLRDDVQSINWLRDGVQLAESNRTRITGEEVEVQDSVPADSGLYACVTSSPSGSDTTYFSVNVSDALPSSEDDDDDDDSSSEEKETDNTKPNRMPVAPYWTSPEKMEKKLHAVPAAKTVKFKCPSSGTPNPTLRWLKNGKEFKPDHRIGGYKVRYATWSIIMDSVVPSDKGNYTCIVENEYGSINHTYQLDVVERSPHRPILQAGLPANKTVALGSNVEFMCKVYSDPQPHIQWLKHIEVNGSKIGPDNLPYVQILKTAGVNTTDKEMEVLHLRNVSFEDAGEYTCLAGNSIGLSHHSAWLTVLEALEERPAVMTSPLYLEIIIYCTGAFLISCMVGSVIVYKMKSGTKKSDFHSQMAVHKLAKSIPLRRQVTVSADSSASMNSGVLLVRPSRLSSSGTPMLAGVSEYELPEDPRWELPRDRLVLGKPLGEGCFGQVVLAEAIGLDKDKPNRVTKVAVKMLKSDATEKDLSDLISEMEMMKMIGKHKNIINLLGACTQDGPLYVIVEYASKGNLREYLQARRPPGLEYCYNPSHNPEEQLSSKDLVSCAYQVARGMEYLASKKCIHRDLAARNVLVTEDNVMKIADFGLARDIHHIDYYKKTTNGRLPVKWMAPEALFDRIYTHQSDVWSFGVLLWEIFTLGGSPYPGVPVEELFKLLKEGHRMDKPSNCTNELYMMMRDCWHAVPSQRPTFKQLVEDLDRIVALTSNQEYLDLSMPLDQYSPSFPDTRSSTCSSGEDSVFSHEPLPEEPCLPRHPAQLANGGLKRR
# Experimental: as §1
# [7] = biological target: HIPK4 (Homo sapiens, UniProt Q8NE63); test: Kinase profiling (SelectScreen), ZLYTE; assay type: biochemical
# Experimental: as §1
# [8] = biological target: KDR (VEGFR2) (Homo sapiens, UniProt P35968); test: Kinase profiling (SelectScreen), ZLYTE; assay type: biochemical
# Chain of KDR (VEGFR2) (P35968 20-1356): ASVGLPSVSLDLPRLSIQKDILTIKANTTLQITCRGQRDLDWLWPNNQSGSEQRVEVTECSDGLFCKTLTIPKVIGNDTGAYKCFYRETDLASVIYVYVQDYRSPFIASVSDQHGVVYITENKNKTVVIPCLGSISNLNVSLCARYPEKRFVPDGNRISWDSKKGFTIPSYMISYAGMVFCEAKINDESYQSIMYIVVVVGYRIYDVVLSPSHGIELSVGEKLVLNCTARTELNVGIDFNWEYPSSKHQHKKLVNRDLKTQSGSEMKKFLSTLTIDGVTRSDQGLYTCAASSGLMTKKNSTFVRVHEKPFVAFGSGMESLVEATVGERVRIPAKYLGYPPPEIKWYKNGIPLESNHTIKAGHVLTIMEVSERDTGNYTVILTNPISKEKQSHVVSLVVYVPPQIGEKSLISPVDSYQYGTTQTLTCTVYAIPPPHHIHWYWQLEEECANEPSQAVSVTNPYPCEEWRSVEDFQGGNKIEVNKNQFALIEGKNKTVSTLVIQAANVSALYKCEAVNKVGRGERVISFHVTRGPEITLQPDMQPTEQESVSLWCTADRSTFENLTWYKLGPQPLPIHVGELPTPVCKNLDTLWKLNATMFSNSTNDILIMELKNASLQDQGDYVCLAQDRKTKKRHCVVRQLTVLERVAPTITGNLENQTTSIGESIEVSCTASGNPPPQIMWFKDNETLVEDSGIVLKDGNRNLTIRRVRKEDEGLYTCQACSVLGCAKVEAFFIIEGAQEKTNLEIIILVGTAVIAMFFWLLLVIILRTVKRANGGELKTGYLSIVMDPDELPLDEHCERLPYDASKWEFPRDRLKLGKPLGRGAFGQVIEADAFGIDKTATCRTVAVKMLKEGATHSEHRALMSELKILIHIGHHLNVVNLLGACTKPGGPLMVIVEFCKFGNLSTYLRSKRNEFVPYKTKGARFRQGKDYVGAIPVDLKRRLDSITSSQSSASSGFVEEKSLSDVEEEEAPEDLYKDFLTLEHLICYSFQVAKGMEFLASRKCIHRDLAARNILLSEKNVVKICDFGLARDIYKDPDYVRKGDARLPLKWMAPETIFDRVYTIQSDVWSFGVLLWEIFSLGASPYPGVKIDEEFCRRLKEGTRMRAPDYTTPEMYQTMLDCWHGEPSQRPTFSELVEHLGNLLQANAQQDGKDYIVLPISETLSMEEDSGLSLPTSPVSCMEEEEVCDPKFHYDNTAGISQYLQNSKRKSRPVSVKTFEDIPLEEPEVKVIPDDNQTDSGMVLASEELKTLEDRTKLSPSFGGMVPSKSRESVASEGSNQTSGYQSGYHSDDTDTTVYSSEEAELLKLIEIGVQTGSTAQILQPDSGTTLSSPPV
# Experimental: as §1
# [9] = biological target: MAPK14 (p38 alpha) (Homo sapiens, UniProt Q16539); test: Kinase profiling (SelectScreen), ZLYTE; assay type: biochemical; settings: IA107 at 5 μM; ATP 100 μM
# Chain of MAPK14 (p38 alpha) (Q16539 whole entry): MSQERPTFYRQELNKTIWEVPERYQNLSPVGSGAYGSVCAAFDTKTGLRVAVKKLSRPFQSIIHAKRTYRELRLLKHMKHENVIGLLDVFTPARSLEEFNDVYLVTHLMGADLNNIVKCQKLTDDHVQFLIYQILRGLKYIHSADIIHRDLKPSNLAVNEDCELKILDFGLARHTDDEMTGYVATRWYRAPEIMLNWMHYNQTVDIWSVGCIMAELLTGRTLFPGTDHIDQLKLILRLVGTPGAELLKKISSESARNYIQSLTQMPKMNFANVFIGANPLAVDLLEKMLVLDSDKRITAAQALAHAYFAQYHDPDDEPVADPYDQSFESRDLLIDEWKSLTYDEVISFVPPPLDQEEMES
# Experimental: as §1
# [10] = biological target: NTRK2 (TRKB) (Homo sapiens, UniProt Q16620); test: Kinase profiling (SelectScreen), ZLYTE; assay type: biochemical
# Experimental: as §1
# [11] = biological target: PDGFRB (PDGFR beta) (Homo sapiens, UniProt P09619); test: Kinase profiling (SelectScreen), ZLYTE; assay type: biochemical
# Experimental: as §1
# [12] = biological target: PHKG2 (Homo sapiens, UniProt P15735); test: Kinase profiling (SelectScreen), ZLYTE; assay type: biochemical
# Experimental: as §1
# [13] = biological target: RPS6KA3 (RSK2) (Homo sapiens, UniProt P51812); test: Kinase profiling (SelectScreen), ZLYTE; assay type: biochemical
# Chain of RPS6KA3 (RSK2) (P51812 whole entry): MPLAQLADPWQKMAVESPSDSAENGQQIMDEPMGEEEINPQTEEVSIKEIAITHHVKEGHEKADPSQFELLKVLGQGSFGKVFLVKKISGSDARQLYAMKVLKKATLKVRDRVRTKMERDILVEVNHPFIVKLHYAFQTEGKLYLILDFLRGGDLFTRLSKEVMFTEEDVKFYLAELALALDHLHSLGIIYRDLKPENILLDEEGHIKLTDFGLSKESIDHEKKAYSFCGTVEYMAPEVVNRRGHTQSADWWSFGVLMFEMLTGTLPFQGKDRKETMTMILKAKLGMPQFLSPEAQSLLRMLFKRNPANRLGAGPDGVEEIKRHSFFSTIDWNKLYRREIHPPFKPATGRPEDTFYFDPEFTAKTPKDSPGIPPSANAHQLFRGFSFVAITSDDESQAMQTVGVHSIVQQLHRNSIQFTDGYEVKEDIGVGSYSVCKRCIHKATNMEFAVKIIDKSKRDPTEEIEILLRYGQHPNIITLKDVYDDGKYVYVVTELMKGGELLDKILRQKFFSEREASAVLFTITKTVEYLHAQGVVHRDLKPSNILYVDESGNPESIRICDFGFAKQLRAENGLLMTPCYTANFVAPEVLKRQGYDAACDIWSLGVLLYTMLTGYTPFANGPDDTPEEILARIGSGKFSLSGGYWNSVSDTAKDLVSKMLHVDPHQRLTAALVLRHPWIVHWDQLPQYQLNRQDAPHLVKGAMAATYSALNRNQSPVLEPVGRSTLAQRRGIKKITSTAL
# Experimental: as §1
# [14] = tested on: XBP1 mRNA splicing in HCT 116 cells; test: RT-qPCR of ER stress-induced XBP1 mRNA splicing, HCT 116; assay type: cell-based, human; settings: HCT 116 cells
# Experimental: A549 cells, HCT 116 cells, and HT-29 cells were collected and seeded in 6-well plates at a density of 5 × 10^5 cells per well and cultured overnight to attach, then treated with compound or DMSO for 2 h, then 0.5 μg/mL final concentration of tunicamycin (Tm, MP Biomedi, 0215002805) were added to induce the ER stress for 2 h. After treatment, total RNA was purified using an RNeasy mini kit (Qiagen, 74106). 500 ng of total RNA was used for reverse transcription using the High-Capacity cDNA Reverse Transcription Kits (Thermo Fisher, 4368814). cDNA was diluted 1: 5 using RNase-free water, and 1 μL CDNA was used for each qPCR reaction. The qPCR was performed using PowerUp™ SYBR™ Green Master Mix (Thermo Fisher, A25742) with 10 µL reaction volume using Bio-Rad CFX96 Real-Time PCR Detection System following the standard cycling mode (primer Tm ≥ 60 °C) on the manufacturer’s protocol. Data was analyzed using the 2^- ΔΔCt method. The primers used are listed in Supplementary Table S3. The inhibition % was calculated by using the equation: inhibition% = 100× (normalized Tm control - normalized of the sample)/(normalized Tm control - normalized DMSO control). Tm control: Cells treated with tunicamycin; DMSO control: Cells treated with DMSO only.
smiles,measurement,setting,value
Cc1c(CCC(=O)O)c2cc(Br)ccc2n1C(=O)c1ccccc1 [IA107],inhibition mechanism towards the XBP1 mRNA substrate,[1],non-competitive
same,Vmax,[1]; 0.01 μM IA107,7.98 FL. I/s
same,Vmax,[1]; 0.1 μM IA107,2.33 FL. I/s
same,Vmax,[1]; 1 μM IA107,0.9 FL. I/s
same,IRE1a Velocity,"[1]; RNA 5000 nM, IA107 0.01 μM",7.329 FL.I/s and 6.249 FL.I/s
same,IRE1a Velocity,"[1]; RNA 5000 nM, IA107 0.1 μM",1.807 FL.I/s and 2.323 FL.I/s
same,IRE1a Velocity,"[1]; RNA 5000 nM, IA107 1 μM",0.681 FL.I/s and 0.661 FL.I/s
same,IRE1a Velocity,"[1]; RNA 10000 nM, IA107 0.01 μM",7.224 FL.I/s and 6.354 FL.I/s
same,IRE1a Velocity,"[1]; RNA 10000 nM, IA107 0.1 μM",1.848 FL.I/s and 1.988 FL.I/s
same,IRE1a Velocity,"[1]; RNA 10000 nM, IA107 1 μM",0.902 FL.I/s and 0.839 FL.I/s
same,inhibition at 5 µM,[2],-5%
same,inhibition at 5 µM,[3],9%
same,inhibition at 5 µM,[4],8%
same,inhibition at 5 µM,[5],-2%
same,inhibition at 5 µM,[6],4%
same,inhibition at 5 µM,[7],6%
same,inhibition at 5 µM,[8],1%
same,inhibition at 5 µM,[9],6%
same,inhibition at 5 µM,[10],5%
same,inhibition at 5 µM,[11],0%
same,inhibition at 5 µM,[12],26%
same,inhibition at 5 µM,[13],1%
CCOC(=O)CCc1c(C)n(C(=O)c2ccccc2)c2ccc(Br)cc12 [IAPD1],inhibition of ER stress-induced XBP1 mRNA splicing,[14],inhibited
same,pIC50,[14]; Homo sapiens,6.66

# — article PMC12475274, “Harnessing indole scaffolds to identify small-molecule IRE1α inhibitors modulating XBP1 mRNA splicing” (Nature Communications, 2025)
